These results are taken from patent US20250171438A1 (Agios Pharmaceuticals, Inc., priority 2022, published 2025).

The first assay concerns the target T1, human PAH with the R408W mutation (Homo sapiens, UniProt P00439, R408W).
T1 construct: expressed in transfected cells
T1 sequence (P00439 1-452 R408W): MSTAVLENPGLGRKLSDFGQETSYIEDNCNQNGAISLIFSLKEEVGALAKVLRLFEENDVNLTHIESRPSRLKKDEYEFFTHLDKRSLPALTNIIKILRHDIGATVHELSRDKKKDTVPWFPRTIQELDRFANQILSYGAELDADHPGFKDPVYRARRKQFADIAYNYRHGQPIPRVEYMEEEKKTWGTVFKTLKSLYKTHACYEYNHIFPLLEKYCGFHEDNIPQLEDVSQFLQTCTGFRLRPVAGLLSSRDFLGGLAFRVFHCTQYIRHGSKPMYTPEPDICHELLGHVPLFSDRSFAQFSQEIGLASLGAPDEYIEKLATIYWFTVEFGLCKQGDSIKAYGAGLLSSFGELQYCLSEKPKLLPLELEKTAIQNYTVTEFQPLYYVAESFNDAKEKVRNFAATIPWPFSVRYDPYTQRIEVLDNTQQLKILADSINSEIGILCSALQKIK
As to the kind of experiment: Cell Based Phenylalanine Flux Assay. The arrangement: scale not given here. The note with it: A375 cells expressing human R408W PAH; 24 hrs compound incubation; 13C-Tyrosine by LC-MS; average where tested multiple times; read-out: AC50.
For the compound `CC(C)(O)c1nc(C#N)c(C(=O)N2CCc3[nH]cnc3[C@@H]2c2nc3ccccc3s2)o1` [Example 1698, (R)-5-(4-(benzo[d]thiazol-2-yl)-4,5,6,7-tetrahydro-1H-imidazo[4,5-c]pyridine-5-carbonyl)-2-(2-hydroxypropan-2-yl)oxazole-4-carbonitrile], the AC50 is over 5000 nM.
In the case of `O=C(c1cn(CC(F)(F)F)nc1Cl)N1CCc2[nH]cnc2[C@H]1c1nc2c(F)cccc2s1` [Example 1764, (S)-(3-chloro-1-(2,2,2-trifluoroethyl)-1H-pyrazol-4-yl)(4-(4-fluorobenzo[d]thiazol-2-yl)-6,7-dihydro-1H-imidazo[4,5-c]pyridin-5(4H)-yl)methanone], the AC50 lay within 500 to 1000 nM.
On the same count and under the same terms, under `O=C(c1cnc(-c2ccccc2)o1)N1CCc2[nH]cnc2[C@@H]1c1nc2ccccc2s1` [Example 1208, (R)-(4-(benzo[d]thiazol-2-yl)-6,7-dihydro-1H-imidazo[4,5-c]pyridin-5(4H)-yl)(2-phenyloxazol-5-yl)methanone] stands 1000 to 5000 nM; under `CN(C)CCn1nccc1C(=O)N1CCc2[nH]cnc2[C@@H]1c1nc2c(F)cccc2s1` [Example 1762, (R)-(1-(2-(dimethylamino)ethyl)-1H-pyrazol-5-yl)(4-(4-fluorobenzo[d]thiazol-2-yl)-6,7-dihydro-1H-imidazo[4,5-c]pyridin-5(4H)-yl)methanone], 1000 to 5000 nM; under `O=C(c1cnn2ccccc12)N1CCc2[nH]cnc2[C@H]1c1nc2c(Cl)cccc2s1` [Example 1221, (S)-(4-(4-chlorobenzo[d]thiazol-2-yl)-6,7-dihydro-1H-imidazo[4,5-c]pyridin-5(4H)-yl)(pyrazolo[1,5-a]pyridin-3-yl)methanone], under 500 nM.
`Cc1nn(C)cc1-c1ncc(C(=O)N2CCc3[nH]cnc3[C@H]2c2nc3ccccc3s2)o1` [Example 1381]: the AC50 is under 500 nM.
The same measure, in the same setting: the result for `Cc1ccc2c(C(=O)N3CCc4[nH]cnc4[C@H]3c3nc4c(F)cccc4s3)cnn2c1` [Example 1173, (S)-(4-(4-fluorobenzo[d]thiazol-2-yl)-6,7-dihydro-1H-imidazo[4,5-c]pyridin-5(4H)-yl)(6-methylpyrazolo[1,5-a]pyridin-3-yl)methanone] reads 500 to 1000 nM; that for `O=C(c1cnn(-c2ccccn2)c1Cl)N1CCc2[nH]cnc2[C@H]1c1nc2c(F)cccc2s1` [Example 1765], 500 to 1000 nM.
On to `O=C(c1oc(N2CCOCC2)nc1C(F)F)N1CCc2[nH]cnc2[C@H]1c1nc2c(F)cccc2s1` [Example 2025, (S)-(4-(difluoromethyl)-2-morpholinooxazol-5-yl)(4-(4-fluorobenzo[d]thiazol-2-yl)-6,7-dihydro-1H-imidazo[4,5-c]pyridin-5(4H)-yl)methanone], for which the half-maximal activity concentration (AC50) is under 500 nM.
Still for that read-out and setting: the result for `O=C(c1ocnc1-c1ccccn1)N1CCc2[nH]cnc2[C@H]1c1nc2c(F)cccc2s1` [Example 1523, (S)-(4-(4-fluorobenzo[d]thiazol-2-yl)-6,7-dihydro-1H-imidazo[4,5-c]pyridin-5(4H)-yl)(4-(pyridin-2-yl)oxazol-5-yl)methanone] reads 500 to 1000 nM; that for `Nc1cc(C(=O)N2CCc3[nH]cnc3[C@H]2c2nc3ccccc3s2)n(C(F)F)n1` [Example 2051], under 500 nM; that for `O=C(c1cnn2cc(Cl)ccc12)N1CCc2[nH]cnc2[C@H]1c1nc2c(F)cccc2s1` [Example 1237], 500 to 1000 nM.
On the same count and under the same terms, the result for `CC(C)(O)c1ncc(C(=O)N2CCc3[nH]cnc3[C@H]2c2nc3c(F)cccc3s2)o1` [Example 1483, (S)-(4-(4-fluorobenzo[d]thiazol-2-yl)-6,7-dihydro-1H-imidazo[4,5-c]pyridin-5(4H)-yl)(2-(2-hydroxypropan-2-yl)oxazol-5-yl)methanone] reads 500 to 1000 nM; that for `CC(C)(O)c1nnc(C(=O)N2CC3(CC3)c3[nH]cnc3[C@@H]2c2nc3ccccc3s2)o1` [Example 1695, (R)-(4′-(benzo[d]thiazol-2-yl)spiro[cyclopropane-1,7′-imidazo[4,5-c]pyridin]-5′(1′H,4′H,6′H)-yl)(5-(2-hydroxypropan-2-yl)-1,3,4-oxadiazol-2-yl)methanone], over 5000 nM; that for `O=C(c1oc(CCN2CC(F)C2)nc1C(F)(F)F)N1CCc2[nH]cnc2[C@@H]1c1nc2c(F)cccc2s1` [Example 1666, (R)-(2-(2-(3-fluoroazetidin-1-yl)ethyl)-4-(trifluoromethyl)oxazol-5-yl)(4-(4-fluorobenzo[d]thiazol-2-yl)-6,7-dihydro-1H-imidazo[4,5-c]pyridin-5(4H)-yl)methanone], under 500 nM.
On the same count and under the same terms, the result for `O=C(c1oc(C2CC2)nc1C(F)F)N1CCc2[nH]cnc2[C@@H]1c1nc2ccccc2s1` [Example 1622, (R)-(4-(benzo[d]thiazol-2-yl)-6,7-dihydro-1H-imidazo[4,5-c]pyridin-5(4H)-yl)(2-cyclopropyl-4-(difluoromethyl)oxazol-5-yl)methanone] reads under 500 nM; that for `CC1(c2nc(C(F)F)c(C(=O)N3CCc4[nH]cnc4[C@H]3c3nc4ccccc4s3)o2)CC1` [Example 1851], under 500 nM; that for `O=C(CCC1CC1)N1CCc2[nH]cnc2[C@H]1c1nc2ccc(F)cc2s1` [Example 1093, (S)-3-cyclopropyl-1-(4-(6-fluorobenzo[d]thiazol-2-yl)-6,7-dihydro-1H-imidazo[4,5-c]pyridin-5(4H)-yl)propan-1-one], 500 to 1000 nM.
Take `CC(C)(C)n1ncc(C(=O)N2CCc3[nH]cnc3[C@@H]2c2nc3c(F)cccc3s2)c1Cl` [Example 1932, (R)-(1-(tert-butyl)-5-chloro-1H-pyrazol-4-yl)(4-(4-fluorobenzo[d]thiazol-2-yl)-6,7-dihydro-1H-imidazo[4,5-c]pyridin-5(4H)-yl)methanone]: the AC50 fell in the range of 1000 to 5000 nM.
For the compound `Cc1nc(C(C)(C)C#N)oc1C(=O)N1CCc2[nH]cnc2[C@H]1c1nc2c(F)cccc2s1` [Example 1998, (S)-2-(5-(4-(4-fluorobenzo[d]thiazol-2-yl)-4,5,6,7-tetrahydro-1H-imidazo[4,5-c]pyridine-5-carbonyl)-4-methyloxazol-2-yl)-2-methylpropanenitrile], the AC50 is under 500 nM.
Same read-out and setting: under `O=C(C1CN(c2ncccc2F)C1)N1CCc2[nH]cnc2[C@@H]1c1nc2ccccc2s1` [Example 1910, (R)-(4-(benzo[d]thiazol-2-yl)-6,7-dihydro-1H-imidazo[4,5-c]pyridin-5(4H)-yl)(1-(3-fluoropyridin-2-yl)azetidin-3-yl)methanone] stands over 5000 nM.
On the same count and under the same terms, under `CN1CCN(c2nc(C(F)(F)F)c(C(=O)N3CCc4[nH]cnc4[C@@H]3c3nc4c(F)cccc4s3)o2)CC1` [Example 1624, (R)-(4-(4-fluorobenzo[d]thiazol-2-yl)-6,7-dihydro-1H-imidazo[4,5-c]pyridin-5(4H)-yl)(2-(4-methylpiperazin-1-yl)-4-(trifluoromethyl)oxazol-5-yl)methanone] stands under 500 nM.

Staying with this assay, now noted: A375 cells expressing human R408W PAH; 24 hrs with compound; 13C-Tyrosine by LC-MS; average where tested multiple times.
In the case of `Cc1nc(C(F)(F)F)c(C(=O)N2CCc3nc[nH]c3C2c2nc3ccccc3s2)o1` (stereo not shown), the AC50 result is on record as “E, E”.

The same assay, now with this note: A375 cells expressing human R408W PAH; 24 hrs with compound; 13C-Tyrosine by LC-MS; average where tested multiple times; read-out: AC50.
`Cc1nc(-c2ccccn2)c(C(=O)N2CCc3[nH]cnc3C2c2nc3c(F)cccc3s2)o1` (stereo not shown): the AC50 was over 5000 nM.
Same read-out and setting: the result for `O=C(c1nnc(CCC(F)(F)F)o1)N1CCc2[nH]cnc2C1c1nc2ccccc2s1` (stereo not shown) reads 1000 to 5000 nM.
For the compound `COCc1cc(C(=O)N2CCc3[nH]cnc3C2c2nc3c(F)cccc3s2)n(C)n1` (stereo not shown), the concentration at half-maximal activity (AC50) was in the range of 1000 to 5000 nM.
Still for that read-out and setting: under `O=C(C1CN(CC(F)(F)F)C1)N1CCc2[nH]cnc2C1c1nc2c(F)cccc2s1` (stereo not shown) stands 1000 to 5000 nM; under `Nc1cnc(N2CCc3[nH]cnc3C2c2nc3ccccc3s2)nc1` (stereo not shown), 1000 to 5000 nM.
The same measure, in the same setting: under `O=C(CCc1nnc(C(F)F)o1)N1CCc2[nH]cnc2C1c1nc2ccccc2s1` (stereo not shown) stands over 5000 nM; under `Cc1nnc(CC(=O)N2CCc3[nH]cnc3C2c2nc3ccccc3s2)s1` (stereo not shown), over 5000 nM; under `COCCc1ncc(C(=O)N2CCc3[nH]cnc3C2c2nc3ccccc3s2)o1` (stereo not shown), 1000 to 5000 nM.
The same measure, in the same setting: under `CC1CN(C(=O)c2cnco2)C(c2nc3c(F)cccc3s2)c2nc[nH]c21` (stereo not shown) stands over 5000 nM; under `COCc1cc(C(=O)N2CCc3[nH]cnc3C2c2nc3c(F)cccc3s2)[nH]n1` (stereo not shown), 1000 to 5000 nM.
With `Cc1nnc(CC(=O)N2CCc3[nH]cnc3C2c2nc3ccccc3s2)o1` (stereo not shown), the concentration at half-maximal activity (AC50) was over 5000 nM.
Regarding `O=C(c1ccno1)N1CCc2[nH]cnc2C1c1nc2cccc(F)c2s1` (stereo not shown), the AC50 lay within 1000 to 5000 nM.
On to `O=C(c1ocnc1CO)N1CC2(CC2)c2[nH]cnc2C1c1nc2ccccc2s1` (stereo not shown), for which the AC50 is 1000 to 5000 nM.
Same read-out and setting: under `Cc1nnc(CCC(=O)N2CCc3[nH]cnc3C2c2nc3c(F)cccc3s2)s1` (stereo not shown) stands over 5000 nM; under `O=C(c1oc(-c2ccccc2)nc1-c1ccccc1)N1CCc2[nH]cnc2C1c1nc2ccccc2s1` (stereo not shown), 1000 to 5000 nM; under `COc1ccn2ncc(C(=O)N3CCc4[nH]cnc4[C@H]3c3nc4ccccc4[nH]3)c2c1` [(S)-(4-(1H-benzo[d]imidazol-2-yl)-6,7-dihydro-1H-imidazo[4,5-c]pyridin-5(4H)-yl)(5-methoxypyrazolo[1,5-a]pyridin-3-yl)methanone], 1000 to 5000 nM.
Same read-out and setting: under `O=C(c1ccn[nH]1)N1CCc2[nH]cnc2C1c1nc2c(F)cccc2s1` (stereo not shown) stands 1000 to 5000 nM.
